The text below walks through data of US20260166039A1 (SCHRÖDINGER, INC., priority 2022, published 2026).

The target in the first experiment is T1, Wee1 kinase domain (Homo sapiens, UniProt P30291).
T1 construct: Wee1 kinase domain was purchased from Carna (catalog #05-177); purchased Carna 05-177
T1 sequence (P30291 299-569 limits assumed): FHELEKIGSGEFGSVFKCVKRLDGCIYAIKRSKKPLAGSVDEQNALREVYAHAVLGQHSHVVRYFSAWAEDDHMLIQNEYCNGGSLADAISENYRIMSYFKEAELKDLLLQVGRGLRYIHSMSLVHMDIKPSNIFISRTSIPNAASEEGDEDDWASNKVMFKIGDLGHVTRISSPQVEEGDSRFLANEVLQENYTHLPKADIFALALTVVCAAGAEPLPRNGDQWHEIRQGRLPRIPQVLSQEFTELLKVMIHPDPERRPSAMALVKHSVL
Kind of experiment: Wee1 Kinase Biochemical Assay (ADP-Glo). The following applies: Wee1 kinase domain, 15 uM ATP, ADP-Glo. A digest of the protocol:
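ADP-Glo luminescence readout of ADP produced by 1 nM kinase domain phosphorylating Poly(Lys,Tyr 4:1) (2 ng/mL) at 15 uM ATP. Reaction ran 4 h, 25 °C, in Tris/MgCl2 buffer with BSA and DTT. Inhibition scaled between DMSO (high) and saturating control inhibitor (low).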
On to `CC1(C)C[C@@H]2N(c3cccc(N=S(C)(C)=O)n3)c3nc(Nc4ccc([C@H]5CCCN5)nc4)ncc3[C@]2(C)CO1` (single isomer, unassigned) [Example 211], for which the concentration for half-maximal inhibition (IC50) lay within 10 to 100 nM.

Consider `CNCc1cccc(N2c3nc(Nc4ccc([C@@H]5CCCO5)cc4)ncc3[C@@]3(C)COC(C)(C)C[C@@H]23)n1` (single isomer, unassigned) [Example 59], for which the IC50 is under 10 nM.

For `CC(=O)Nc1ncc2c(n1)N(c1cccc(N=S(C)(C)=O)n1)[C@@H]1CC(C)(C)OC[C@]21C` (single isomer, unassigned) [Example 398], the 50% inhibitory concentration (IC50) was 10 to 100 nM.

In the case of `CN1CC[C@H](c2ccc(Nc3ncc4c(n3)N(c3cccc(N=S(C)(C)=O)n3)[C@H]3CC(C)(C)OC[C@@]43C)cc2)C1` (single isomer, unassigned) [Example 134], the IC50 was 100 to 1000 nM.

In the case of `CN1CCC[C@@H]1c1ccc(Nc2ncc3c(n2)N(c2cccc(N=S(C)(C)=O)n2)[C@H]2CC(C)(C)OC[C@@]32C)cn1` (single isomer, unassigned) [Example 209], the half-maximal inhibitory concentration (IC50) was in the range of 10 to 100 nM.

`Cc1cc(Nc2ncc3c(n2)N(c2cccc(N=S(C)(C)=O)n2)[C@H]2CC(C)(C)OC[C@@]32C)ccc1N1CCN(C)CC1` (single isomer, unassigned) [Example 105] gave an IC50 of 10 to 100 nM.

In turn, `CNCc1cccc(N2c3nc(Nc4ccc(C5(C)COC5)cc4)ncc3[C@]3(C)COC(C)(C)C[C@H]23)n1` (single isomer, unassigned) [Example 83] returned an IC50 of at least 1000 nM.

For `CC1(C)C[C@@H]2N(c3cccc(N=S(C)(C)=O)n3)c3nc(Nc4ccc(C5CNC5)cc4)ncc3[C@]2(C)CO1` (single isomer, unassigned) [Example 164], the concentration for half-maximal inhibition (IC50) was 10 to 100 nM.

Still in this experiment, the particulars now being: class symbols; 1 nM Wee1 enzyme, 15 uM ATP, 4 hours at 25° C.
Take `CN1CCC(n2cc(Nc3ncc4c(n3)N(c3cccc(N=S(C)(C)=O)c3)[C@H]3CC(C)(C)OC[C@@]43C)cn2)CC1` [Example 715, dimethyl((3-((4bS,8aS)-4b,7,7-trimethyl-2-((1-(1-methylpiperidin-4-yl)-1H-pyrazol-4-yl)amino)-4b,7,8,8a-tetrahydropyrano[3′,4′:4,5]pyrrolo[2,3-d]pyrimidin-9(5H)-yl)phenyl)imino)-16-sulfanone]: the concentration for half-maximal inhibition (IC50) fell in the range of 100 to 1000 nM.

Regarding `CN1C[C@H]2C[C@@H]1CN2c1ccc(Nc2ncc3c(n2)N(c2ccccn2)[C@@H]2CC(C)(C)OC[C@]32C)cc1` [Example 801, (4bR,8aR)-4b,7,7-trimethyl-N-(4-((1R,4R)-5-methyl-2,5-diazabicyclo[2.2.1]heptan-2-yl)phenyl)-9-(pyridin-2-yl)-4b,5,7,8,8a,9-hexahydropyrano[3′,4′:4,5]pyrrolo[2,3-d]pyrimidin-2-amine], the half-inhibitory concentration (IC50) was under 10 nM.

`CNCc1cccc(N2c3nc(Nc4ccc(-c5cnn(C)c5)nc4)ncc3[C@]3(C)COC(C)(C)C[C@H]23)n1` (single isomer, unassigned) [Example 459] registered a half-maximal inhibitory concentration (IC50) of 100 to 1000 nM.

In the case of `CC1(C)C[C@@H]2N(c3cccc(N4CCCC4=O)n3)c3nc(Nc4ccc([C@H]5CCNC5)cc4)ncc3[C@]2(C)CO1` [Example 637, 1-(6-((4bS,8aS)-4b,7,7-trimethyl-2-((4-((R)-pyrrolidin-3-yl)phenyl)amino)-4b,7,8,8a-tetrahydropyrano[3′,4′:4,5]pyrrolo[2,3-d]pyrimidin-9(5H)-yl)pyridin-2-yl)pyrrolidin-2-one], the half-inhibitory concentration (IC50) lay in the range of 10 to 100 nM.

`CC1(C)C[C@@H]2N(c3cccc(N4CCCC4=O)n3)c3nc(Nc4ccc(O[C@H]5CCNC5)cc4)ncc3[C@]2(C)CO1` [Example 621, 1-(6-((4bS,8aS)-4b,7,7-trimethyl-2-((4-(((S)-pyrrolidin-3-yl)oxy)phenyl)amino)-4b,7,8,8a-tetrahydropyrano[3′,4′:4,5]pyrrolo[2,3-d]pyrimidin-9(5H)-yl)pyridin-2-yl)pyrrolidin-2-one] had an IC50 of 100 to 1000 nM.

The term IC50 denotes the concentration at which inhibition is half-maximal. High values mean a need for much substance, low ones inhibition by little substance.
